Results reported in the NIST ThermoML archive (doi:10.1016/j.jct.2007.11.009).

Assay: xn = mol fraction of the nth substance listed
Settings: Liquid, Vibrating tube method, x2 = 0

c1ccccc1 [benzene] + CCCCCCCC
mass density [kg/m3]
Settings | 298.15 K | 308.15 K | 318.15 K | 328.15 K
100 kPa | 873.5 | 862.9 | 852.3 | 841.5
2130 kPa | 875.1 | 864.7 | 854.2 | 843.6
4150 kPa | 876.7 | 866.4 | 856.1 | 845.6
6180 kPa | 878.4 | 868.2 | 857.9 | 847.5
8210 kPa | 879.9 | 869.9 | 859.7 | 849.5
10230 kPa | 881.5 | 871.6 | 861.5 | 851.3
11250 kPa | 882.3 | 872.4 | 862.4 | 852.3
12260 kPa | 883.1 | 873.2 | 863.2 | 853.2
14290 kPa | 884.6 | 874.8 | 865 | 855
16310 kPa | 886.1 | 876.4 | 866.6 | 856.8
18340 kPa | 887.6 | 878 | 868.3 | 858.6
20370 kPa | 889.1 | 879.5 | 869.9 | 860.3
22390 kPa | 890.5 | 881.1 | 871.6 | 862
24420 kPa | 892 | 882.6 | 873.2 | 863.7
26450 kPa | 893.4 | 884 | 874.7 | 865.3
28470 kPa | 894.7 | 885.5 | 876.2 | 866.9
29490 kPa | 895.4 | 886.2 | 877 | 867.8
30500 kPa | 896.1 | 886.9 | 877.8 | 868.6
32530 kPa | 897.5 | 888.4 | 879.2 | 870.1
34550 kPa | 898.8 | 889.7 | 880.7 | 871.7
36580 kPa | 900.1 | 891.1 | 882.1 | 873.1
38600 kPa | 901.4 | 892.5 | 883.6 | 874.7
39620 kPa | 902 | 893.2 | 884.3 | 875.4
